Assays:
[1] = biological target: Casein kinase I isoform gamma-1 (Homo sapiens) (UniProt Q9HCP0); details: Compound concentration 1000.0 nM
[2] = system: Receptor-type tyrosine-protein kinase FLT3 (Homo sapiens), P36888 [N841I]; details: Compound concentration 1000.0 nM
[3] = biological target: STE20/SPS1-related proline-alanine-rich protein kinase (Homo sapiens) (UniProt Q9UEW8); details: Compound concentration 1000.0 nM
[4] = biological target: Cyclin-dependent kinase 7 (Homo sapiens) (UniProt P50613); details: Compound concentration 1000.0 nM
Sequence of Cyclin-dependent kinase 7 (Homo sapiens) (P50613 whole entry): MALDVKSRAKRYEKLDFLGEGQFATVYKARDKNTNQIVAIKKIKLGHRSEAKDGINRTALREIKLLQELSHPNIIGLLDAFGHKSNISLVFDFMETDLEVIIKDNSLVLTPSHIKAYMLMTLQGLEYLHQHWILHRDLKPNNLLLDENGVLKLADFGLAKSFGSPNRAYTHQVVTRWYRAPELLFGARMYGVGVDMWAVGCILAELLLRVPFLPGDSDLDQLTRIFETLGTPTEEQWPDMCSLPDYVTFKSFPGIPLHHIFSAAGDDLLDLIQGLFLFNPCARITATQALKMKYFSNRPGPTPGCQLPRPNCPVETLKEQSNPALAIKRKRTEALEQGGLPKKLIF

[5] = system: Tyrosine-protein kinase ABL1 (Homo sapiens), P00519 [H396P]; details: Compound concentration 1000.0 nM
[6] = biological target: Mitogen-activated protein kinase kinase kinase 13 (Homo sapiens) (UniProt O43283); details: Compound concentration 1000.0 nM
[7] = biological target: Serine/threonine-protein kinase MARK2 (Homo sapiens) (UniProt Q7KZI7); details: Compound concentration 1000.0 nM
[8] = biological target: Mitogen-activated protein kinase kinase kinase 14 (Homo sapiens) (UniProt Q99558); details: Compound concentration 1000.0 nM
Sequence of Mitogen-activated protein kinase kinase kinase 14 (Homo sapiens) (Q99558 whole entry, looked up): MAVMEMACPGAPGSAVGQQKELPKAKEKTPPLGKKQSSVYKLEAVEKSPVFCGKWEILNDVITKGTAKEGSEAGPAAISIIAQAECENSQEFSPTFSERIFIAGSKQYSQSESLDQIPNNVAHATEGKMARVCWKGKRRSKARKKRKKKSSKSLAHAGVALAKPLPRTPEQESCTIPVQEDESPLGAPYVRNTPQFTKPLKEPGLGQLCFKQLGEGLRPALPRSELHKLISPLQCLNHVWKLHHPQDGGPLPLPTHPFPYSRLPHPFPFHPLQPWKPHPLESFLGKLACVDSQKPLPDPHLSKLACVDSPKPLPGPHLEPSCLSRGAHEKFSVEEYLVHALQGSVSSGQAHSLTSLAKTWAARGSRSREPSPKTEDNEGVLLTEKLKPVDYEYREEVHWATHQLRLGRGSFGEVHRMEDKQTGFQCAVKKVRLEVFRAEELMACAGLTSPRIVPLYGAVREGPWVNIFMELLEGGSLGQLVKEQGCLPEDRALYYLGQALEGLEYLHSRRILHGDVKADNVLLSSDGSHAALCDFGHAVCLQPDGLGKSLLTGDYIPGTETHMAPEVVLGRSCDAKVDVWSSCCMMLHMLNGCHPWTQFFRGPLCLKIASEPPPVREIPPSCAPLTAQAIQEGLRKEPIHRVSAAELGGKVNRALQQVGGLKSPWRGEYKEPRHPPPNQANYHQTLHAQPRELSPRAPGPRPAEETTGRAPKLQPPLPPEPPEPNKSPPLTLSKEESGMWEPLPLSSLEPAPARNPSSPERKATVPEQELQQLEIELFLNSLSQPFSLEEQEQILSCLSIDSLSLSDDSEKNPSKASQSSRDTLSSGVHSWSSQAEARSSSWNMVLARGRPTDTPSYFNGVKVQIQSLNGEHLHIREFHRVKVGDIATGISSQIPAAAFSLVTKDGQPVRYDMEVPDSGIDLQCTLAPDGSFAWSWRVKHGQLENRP

[9] = biological target: 5-hydroxytryptamine receptor 2A (Homo sapiens) (UniProt P28223); details: Compound concentration 10.0 uM
[10] = biological target: Mitogen-activated protein kinase 7 (Homo sapiens) (UniProt Q13164); details: Compound concentration 1000.0 nM
[11] = biological target: Tyrosine-protein kinase BTK (Homo sapiens) (UniProt Q06187); details: Compound concentration 1000.0 nM
Sequence of Tyrosine-protein kinase BTK (Homo sapiens) (Q06187 whole entry): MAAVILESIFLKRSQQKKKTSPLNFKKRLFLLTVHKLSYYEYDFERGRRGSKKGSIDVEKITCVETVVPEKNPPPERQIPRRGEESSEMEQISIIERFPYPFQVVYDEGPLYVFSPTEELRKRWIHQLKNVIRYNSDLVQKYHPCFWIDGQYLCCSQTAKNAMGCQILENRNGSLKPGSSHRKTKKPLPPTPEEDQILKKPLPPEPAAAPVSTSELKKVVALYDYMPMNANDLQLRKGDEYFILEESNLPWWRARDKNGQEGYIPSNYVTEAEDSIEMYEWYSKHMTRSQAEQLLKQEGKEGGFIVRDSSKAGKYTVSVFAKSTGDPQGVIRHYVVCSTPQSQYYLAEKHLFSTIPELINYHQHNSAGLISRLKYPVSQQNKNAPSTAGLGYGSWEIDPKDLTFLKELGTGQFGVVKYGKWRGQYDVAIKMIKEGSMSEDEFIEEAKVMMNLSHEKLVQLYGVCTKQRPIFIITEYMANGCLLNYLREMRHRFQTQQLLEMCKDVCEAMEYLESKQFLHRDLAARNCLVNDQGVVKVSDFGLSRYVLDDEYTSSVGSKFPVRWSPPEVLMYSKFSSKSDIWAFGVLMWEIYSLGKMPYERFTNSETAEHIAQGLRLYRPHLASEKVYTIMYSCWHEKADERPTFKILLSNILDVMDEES

[12] = biological target: Inhibitor of nuclear factor kappa-B kinase subunit beta (Homo sapiens) (UniProt O14920); details: Compound concentration 1000.0 nM
[13] = biological target: Serine/threonine-protein kinase mTOR (Homo sapiens) (UniProt P42345); details: Compound concentration 1000.0 nM
[14] = biological target: Serine/threonine-protein kinase PAK 6 (Homo sapiens) (UniProt Q9NQU5); details: Compound concentration 1000.0 nM
[15] = system: Tyrosine-protein kinase ABL1 (Homo sapiens), P00519 [Q252H]; details: Compound concentration 1000.0 nM
[16] = biological target: Tyrosine-protein kinase receptor TYRO3 (Homo sapiens) (UniProt Q06418); details: Compound concentration 1000.0 nM
Sequence of Tyrosine-protein kinase receptor TYRO3 (Homo sapiens) (Q06418 whole entry): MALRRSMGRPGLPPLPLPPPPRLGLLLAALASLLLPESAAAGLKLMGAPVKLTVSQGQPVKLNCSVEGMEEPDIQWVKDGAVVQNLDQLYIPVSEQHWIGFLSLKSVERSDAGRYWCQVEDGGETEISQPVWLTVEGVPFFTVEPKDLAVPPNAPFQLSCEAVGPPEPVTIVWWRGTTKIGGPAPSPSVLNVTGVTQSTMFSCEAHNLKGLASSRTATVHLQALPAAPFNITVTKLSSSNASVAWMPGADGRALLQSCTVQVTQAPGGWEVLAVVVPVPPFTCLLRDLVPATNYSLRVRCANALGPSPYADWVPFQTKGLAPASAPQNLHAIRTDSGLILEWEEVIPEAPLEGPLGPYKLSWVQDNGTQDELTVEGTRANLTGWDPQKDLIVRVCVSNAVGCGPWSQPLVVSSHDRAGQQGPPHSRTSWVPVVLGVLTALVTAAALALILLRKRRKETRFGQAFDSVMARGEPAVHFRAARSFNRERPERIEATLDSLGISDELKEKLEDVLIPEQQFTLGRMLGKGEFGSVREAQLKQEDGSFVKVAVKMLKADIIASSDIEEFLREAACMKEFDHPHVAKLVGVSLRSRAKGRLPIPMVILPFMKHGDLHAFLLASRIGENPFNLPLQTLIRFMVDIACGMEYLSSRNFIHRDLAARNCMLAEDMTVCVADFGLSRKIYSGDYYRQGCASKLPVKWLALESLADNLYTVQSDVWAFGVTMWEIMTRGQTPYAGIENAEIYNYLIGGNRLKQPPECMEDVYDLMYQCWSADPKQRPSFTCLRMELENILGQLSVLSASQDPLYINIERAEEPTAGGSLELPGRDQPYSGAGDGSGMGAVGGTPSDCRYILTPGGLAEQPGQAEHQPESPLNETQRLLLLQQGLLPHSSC

[17] = biological target: Mitogen-activated protein kinase kinase kinase 3 (Homo sapiens) (UniProt Q99759); details: Compound concentration 1000.0 nM
[18] = biological target: Ephrin type-A receptor 1 (Homo sapiens) (UniProt P21709); details: Compound concentration 1000.0 nM
[19] = biological target: Tyrosine-protein kinase Lck (Homo sapiens) (UniProt P06239); details: Compound concentration 1000.0 nM
[20] = biological target: Serine/threonine-protein kinase SIK2 (Homo sapiens) (UniProt Q9H0K1); details: Compound concentration 1000.0 nM
[21] = biological target: Mitogen-activated protein kinase kinase kinase 11 (Homo sapiens) (UniProt Q16584); details: Compound concentration 1000.0 nM
[22] = biological target: Phosphatidylinositol 4,5-bisphosphate 3-kinase catalytic subunit alpha isoform (Homo sapiens) (UniProt P42336); details: Compound concentration 1000.0 nM
[23] = biological target: Protein kinase C delta type (Homo sapiens) (UniProt Q05655); details: Compound concentration 1000.0 nM
[24] = biological target: Megakaryocyte-associated tyrosine-protein kinase (Homo sapiens) (UniProt P42679); details: Compound concentration 1000.0 nM
[25] = biological target: Cyclin-dependent kinase 18 (Homo sapiens) (UniProt Q07002); details: Compound concentration 1000.0 nM
[26] = biological target: Serine/threonine-protein kinase PLK4 (Homo sapiens) (UniProt O00444); details: Compound concentration 1000.0 nM
[27] = biological target: Microtubule-associated serine/threonine-protein kinase 1 (Homo sapiens) (UniProt Q9Y2H9); details: Compound concentration 1000.0 nM
[28] = biological target: T1, Alpha-1B adrenergic receptor (Homo sapiens) (UniProt P35368); details: Compound concentration 10.0 uM
T1 sequence (whole entry): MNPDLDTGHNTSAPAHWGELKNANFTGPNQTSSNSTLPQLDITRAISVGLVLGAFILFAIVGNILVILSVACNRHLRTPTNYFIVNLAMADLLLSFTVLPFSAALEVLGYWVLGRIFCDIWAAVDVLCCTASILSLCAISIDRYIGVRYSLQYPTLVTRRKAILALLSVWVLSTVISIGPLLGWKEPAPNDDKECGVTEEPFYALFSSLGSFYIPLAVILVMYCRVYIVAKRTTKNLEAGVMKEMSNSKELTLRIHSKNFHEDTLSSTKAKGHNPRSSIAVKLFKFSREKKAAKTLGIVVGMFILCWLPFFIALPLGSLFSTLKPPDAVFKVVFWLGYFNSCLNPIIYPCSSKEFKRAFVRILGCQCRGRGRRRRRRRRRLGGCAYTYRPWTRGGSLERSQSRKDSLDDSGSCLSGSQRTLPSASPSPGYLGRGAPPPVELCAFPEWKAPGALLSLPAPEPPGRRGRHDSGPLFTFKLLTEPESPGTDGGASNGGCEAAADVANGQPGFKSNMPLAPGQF

[29] = biological target: Serine/threonine-protein kinase ICK (Homo sapiens) (UniProt Q9UPZ9); details: Compound concentration 1000.0 nM
Sequence of Serine/threonine-protein kinase ICK (Homo sapiens) (Q9UPZ9 whole entry): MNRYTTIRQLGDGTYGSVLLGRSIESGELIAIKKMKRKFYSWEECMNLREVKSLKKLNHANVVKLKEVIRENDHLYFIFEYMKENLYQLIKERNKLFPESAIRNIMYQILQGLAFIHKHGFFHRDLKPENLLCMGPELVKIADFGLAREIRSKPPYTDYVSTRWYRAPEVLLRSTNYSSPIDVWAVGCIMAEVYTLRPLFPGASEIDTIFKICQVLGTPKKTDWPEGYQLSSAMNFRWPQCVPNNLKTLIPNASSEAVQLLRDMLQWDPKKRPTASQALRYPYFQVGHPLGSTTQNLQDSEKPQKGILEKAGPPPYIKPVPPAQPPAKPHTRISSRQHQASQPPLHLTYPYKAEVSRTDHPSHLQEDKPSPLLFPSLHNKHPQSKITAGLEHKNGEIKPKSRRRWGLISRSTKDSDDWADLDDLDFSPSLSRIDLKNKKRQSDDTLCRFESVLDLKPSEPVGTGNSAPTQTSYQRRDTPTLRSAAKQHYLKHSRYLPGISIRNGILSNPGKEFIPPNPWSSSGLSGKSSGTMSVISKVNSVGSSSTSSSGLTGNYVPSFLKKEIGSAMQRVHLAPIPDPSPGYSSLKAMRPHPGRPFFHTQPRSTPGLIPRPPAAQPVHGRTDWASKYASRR

[30] = biological target: Calcium/calmodulin-dependent protein kinase type II subunit delta (Homo sapiens) (UniProt Q13557); details: Compound concentration 1000.0 nM
[31] = biological target: Serine/threonine-protein kinase PAK 1 (Homo sapiens) (UniProt Q13153); details: Compound concentration 1000.0 nM
Sequence of Serine/threonine-protein kinase PAK 1 (Homo sapiens) (Q13153 whole entry): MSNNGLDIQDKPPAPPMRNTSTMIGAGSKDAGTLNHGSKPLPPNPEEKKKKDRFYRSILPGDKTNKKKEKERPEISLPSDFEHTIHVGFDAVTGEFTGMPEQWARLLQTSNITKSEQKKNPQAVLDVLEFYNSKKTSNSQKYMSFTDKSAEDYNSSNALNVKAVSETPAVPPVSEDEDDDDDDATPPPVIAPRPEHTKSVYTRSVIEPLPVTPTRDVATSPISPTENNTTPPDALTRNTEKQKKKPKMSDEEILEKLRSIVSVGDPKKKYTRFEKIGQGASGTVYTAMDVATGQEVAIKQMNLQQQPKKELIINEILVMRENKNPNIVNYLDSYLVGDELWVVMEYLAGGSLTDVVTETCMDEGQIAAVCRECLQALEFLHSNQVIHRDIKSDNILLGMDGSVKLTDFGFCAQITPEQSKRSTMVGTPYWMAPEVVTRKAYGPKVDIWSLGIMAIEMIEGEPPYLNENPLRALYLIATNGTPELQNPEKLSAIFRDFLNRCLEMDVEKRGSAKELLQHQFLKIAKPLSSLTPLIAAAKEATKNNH

[32] = biological target: Non-receptor tyrosine-protein kinase TNK1 (Homo sapiens) (UniProt Q13470); details: Compound concentration 1000.0 nM
[33] = biological target: Mitogen-activated protein kinase kinase kinase kinase 1 (Homo sapiens) (UniProt Q92918); details: Compound concentration 1000.0 nM
[34] = biological target: STE20-like serine/threonine-protein kinase (Homo sapiens) (UniProt Q9H2G2); details: Compound concentration 1000.0 nM
[35] = biological target: Serine/threonine-protein kinase Sgk2 (Homo sapiens) (UniProt Q9HBY8); details: Compound concentration 1000.0 nM
Sequence of Serine/threonine-protein kinase Sgk2 (Homo sapiens) (Q9HBY8 whole entry): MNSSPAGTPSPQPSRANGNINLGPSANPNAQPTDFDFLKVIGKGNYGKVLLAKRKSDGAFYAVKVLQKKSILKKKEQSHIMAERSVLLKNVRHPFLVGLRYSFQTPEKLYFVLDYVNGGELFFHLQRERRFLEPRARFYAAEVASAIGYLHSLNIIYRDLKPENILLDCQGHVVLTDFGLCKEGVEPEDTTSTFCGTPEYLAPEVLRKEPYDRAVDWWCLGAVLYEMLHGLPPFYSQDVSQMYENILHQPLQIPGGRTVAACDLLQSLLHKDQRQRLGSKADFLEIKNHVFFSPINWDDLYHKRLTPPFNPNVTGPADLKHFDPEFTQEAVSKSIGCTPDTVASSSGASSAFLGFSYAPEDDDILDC

[36] = biological target: Sodium-dependent dopamine transporter (Homo sapiens) (UniProt Q01959); details: Compound concentration 10.0 uM
Sequence of Sodium-dependent dopamine transporter (Homo sapiens) (Q01959 whole entry): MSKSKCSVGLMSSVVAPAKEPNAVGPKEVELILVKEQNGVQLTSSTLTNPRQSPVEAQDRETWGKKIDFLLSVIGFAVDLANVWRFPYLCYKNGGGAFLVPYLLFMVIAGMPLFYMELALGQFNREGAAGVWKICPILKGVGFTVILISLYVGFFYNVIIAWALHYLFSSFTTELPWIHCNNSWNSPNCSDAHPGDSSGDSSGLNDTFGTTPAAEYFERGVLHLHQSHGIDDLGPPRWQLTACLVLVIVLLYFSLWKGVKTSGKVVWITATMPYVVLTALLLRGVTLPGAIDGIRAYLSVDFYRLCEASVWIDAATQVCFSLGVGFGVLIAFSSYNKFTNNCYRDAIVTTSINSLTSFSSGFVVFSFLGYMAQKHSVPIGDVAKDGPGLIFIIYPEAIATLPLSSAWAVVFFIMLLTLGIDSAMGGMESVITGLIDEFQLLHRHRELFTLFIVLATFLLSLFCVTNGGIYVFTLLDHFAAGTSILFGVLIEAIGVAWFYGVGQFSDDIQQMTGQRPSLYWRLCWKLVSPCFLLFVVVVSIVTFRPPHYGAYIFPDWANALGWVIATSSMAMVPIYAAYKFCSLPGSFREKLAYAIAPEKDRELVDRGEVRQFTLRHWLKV

[37] = biological target: Dual specificity mitogen-activated protein kinase kinase 6 (Homo sapiens) (UniProt P52564); details: Compound concentration 1000.0 nM
[38] = biological target: Tyrosine-protein kinase Fer (Homo sapiens) (UniProt P16591); details: Compound concentration 1000.0 nM

Row | Compound | residual activity [1] [%] | residual activity [2] [%] | residual activity [3] [%] | residual activity [4] [%] | residual activity [5] [%] | residual activity [6] [%] | residual activity [7] [%] | residual activity [8] [%] | inhibition [9] [%] | residual activity [10] [%] | residual activity [11] [%] | residual activity [12] [%] | residual activity [13] [%] | residual activity [14] [%] | residual activity [15] [%] | residual activity [16] [%] | residual activity [17] [%] | residual activity [18] [%] | residual activity [19] [%] | residual activity [20] [%] | further results
1 | CCC(=O)N[C@H]1CC[C@@H](C(=O)N(C)c2ccc(-c3nc4ccccc4o3)cc2)C1 [BI 99179] | 90 | 100 | 100 | 79 | 100 | 87 | 100 | 92 | 2.34 | 78 | 77 | 90 | 92 | 100 | 78 | 92 | 89 | 100 | 89 | 78 | residual activity [21]: 93%; residual activity [22]: 94%; residual activity [23]: 100%; residual activity [24]: 100%; residual activity [25]: 100%; residual activity [26]: 78%; residual activity [27]: 100%; inhibition [28]: -6.32%; residual activity [29]: 70%; residual activity [30]: 91%; residual activity [31]: 82%; residual activity [32]: 100%; residual activity [33]: 100%; residual activity [34]: 92%; residual activity [35]: 93%; inhibition [36]: 77.3%; residual activity [37]: 100%; residual activity [38]: 90%
2 | CCC(=O)N[C@@H]1CC[C@H](C(=O)N(C)c2ccc(-c3nc4ccccc4o3)cc2)C1 [BI 99990] | 100 | 100 | 73 | 85 | 46 | 100 | 100 | 100 | -9.08 | 100 | 87 | 100 | 99 | 100 | 87 | 82 | 96 | 87 | 100 | 100 | residual activity [21]: 100%; residual activity [22]: 88%; residual activity [23]: 89%; residual activity [24]: 100%; residual activity [25]: 95%; residual activity [26]: 100%; residual activity [27]: 94%; inhibition [28]: -6.47%; residual activity [29]: 92%; residual activity [30]: 100%; residual activity [31]: 82%; residual activity [32]: 100%; residual activity [33]: 100%; residual activity [34]: 100%; residual activity [35]: 100%; inhibition [36]: 23.3%; residual activity [37]: 100%; residual activity [38]: 99%

Source: ChEMBL document CHEMBL4507280 (2021)
